Experimental data taken from US20120252853A1, “Positive allosteric modulators of nicotinic acetylcholine receptor” (H. Lundbeck A/S, priority 2011, published 2012).

Experiments:
[1] = target: human α7 receptor (Homo sapiens, UniProt P36544); test: α7 NNR flux assay (FDSS Ca assay); type: cell-based; conditions: positive allosteric modulation; rat GH4C1 cell line stably expressing human α7; acetylcholine 20 μM; % modulation relative to PNU-120596 set to 100%
In short: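 GH4C1 rat cells stably expressing human α7, loaded with Calcium-4 dye plus 2.5 mM probenecid in HBSS/20 mM HEPES pH 7.4, 3 mM CaCl2. Compounds (0.039–20 μM final) preincubated ~95 s before 20 μM acetylcholine (~EC100); Ex480/Em540 fluorescence on FDSS. Values are % modulation, with 3 μM PNU-120596 set to 100%.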

[2] = target: T1, human KCNQ2 (Homo sapiens, UniProt O43526); test: 86Rb flux in KCNQ2 expressing cells; type: cell-based; conditions: KCNQ2 opening; for EC50: 86Rb efflux, CHO-K1 cells stably transfected with human KCNQ2; for Emax: Max effect determined in % of the effect of 30 mM KCl
T1 construct: expressed in transfected cells
Description: Chinese hamster ovary cells (CHO-K1) were stably transfected with human KCNQ2 inserted into the pCl-neo vector (Promega). Cells were plated at 2×10^5 cells/ml in 96-well plates in 100 μl media (MEM Alpha media, 10% FBS, 1% P/S, 1% L-Glu, and 1 mg/ml G418). At the time of plating the cells were furthermore loaded with 1 μCi/ml 86Rb over-night. On the subsequent day, the cells were washed with 3×50 μl assay buffer (HBSS+10 mM HEPES, pH 7.4) and incubated in 50 μl buffer with retigabine for 30 minutes at 37° C. Following this preincubation, the cell membrane was depolarized for 30 minutes at 37° C. with 15 mM KCl (final concentration) in assay buffer supplemented with the appropriate amount of compound to maintain drug concentration. The supernatant was removed and placed in pony-vials with 0.5 ml scintillation liquid and counted. The dose-dependent effect of the investigated compounds on the efflux of 86Rb through the hKCNQ2 channels were calculated according to the four parameter logistic equation: Y=Bottom+(Top-Bottom)/(1+10̂((LogEC50-X)*HillSlope)), where X is the logarithm of concentration, Y is the response, and HillSlope is the hill coefficient.
A representative selection of compounds of the invention were tested in the assay in addition to 6 comparative examples wherein 0 has been substituted with a 6-membered ring comprising up to two N atoms. Comparative 1-4 has been disclosed in WO 2009/127678 or WO 2009/127679 and comparative 5-6 are close analogues.

human α7 receptor, sequence (P36544 23-502): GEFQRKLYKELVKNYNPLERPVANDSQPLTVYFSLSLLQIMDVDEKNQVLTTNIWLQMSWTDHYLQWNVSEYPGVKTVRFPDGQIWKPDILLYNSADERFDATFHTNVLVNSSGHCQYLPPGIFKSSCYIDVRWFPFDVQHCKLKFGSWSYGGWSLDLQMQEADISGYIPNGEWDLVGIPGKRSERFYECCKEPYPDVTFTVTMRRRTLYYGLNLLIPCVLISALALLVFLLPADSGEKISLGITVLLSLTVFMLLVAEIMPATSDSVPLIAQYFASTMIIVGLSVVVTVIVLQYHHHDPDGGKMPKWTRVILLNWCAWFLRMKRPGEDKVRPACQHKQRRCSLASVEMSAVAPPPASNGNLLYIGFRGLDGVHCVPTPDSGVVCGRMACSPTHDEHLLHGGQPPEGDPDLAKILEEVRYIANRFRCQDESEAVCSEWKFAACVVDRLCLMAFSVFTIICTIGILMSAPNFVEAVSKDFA

EC50 [1] | EC50 [2] | Emax [2] | SMILES
4.2 µM | > 50 µM | 5.4% | Cc1cc(C(=O)NC(C)c2ccc3[nH]c(C(F)(F)F)cc3c2)on1 (single isomer, unassigned) [Compound 96, 3-methyl-N-[1-[2-(trifluoromethyl)-1H-indol-5-yl]ethyl]isoxazole-5-carboxamide]
2.7 µM | > 50 µM | 2% | Cc1cc2cc(CNC(=O)c3occc3C)ccc2[nH]1 [Compound 1, 3-methyl-N-[(2-methyl-1H-indol-5-yl)methyl]furan-2-carboxamide]
0.34 µM | > 50 µM | 5% | Cc1cc2cc(CNC(=O)c3ccc(C)s3)ccc2[nH]1 [Compound 24, 5-methyl-N-[(2-methyl-1H-indol-5-yl)methyl]thiophene-2-carboxamide]
2.97 µM |  | 5.7% | Cc1cc(C(=O)NCc2ccc3[nH]c(C)cc3c2)on1 [Compound 28, 3-methyl-N-[(2-methyl-1H-indol-5-yl)methyl]isoxazole-5-carboxamide]
9.25 µM | > 50 µM | 4% | Cc1cc2cc(CNC(=O)c3cnn(C)c3)ccc2[nH]1 [Compound 29, 1-methyl-N-[(2-methyl-1H-indol-5-yl)methyl]pyrazole-4-carboxamide]
5.8 µM | > 50 µM | 9.6% | Cn1cc(C(=O)NCc2ccc3[nH]c(C(F)(F)F)cc3c2)cn1 [Compound 30, 1-methyl-N-[[2-(trifluoromethyl)-1H-indol-5-yl]methyl]pyrazole-4-carboxamide]
2.45 µM |  | 7.5% | Cc1cc2cc(CNC(=O)c3cnc(C)s3)ccc2[nH]1 [Compound 35, 2-methyl-N-[(2-methyl-1H-indol-5-yl)methyl]thiazole-5-carboxamide]
1.49 µM |  | 3.3% | Cc1cc2cc(CNC(=O)c3cnn(CC(F)(F)F)c3)ccc2[nH]1 [Compound 36, N-[(2-methyl-1H-indol-5-yl)methyl]-1-(2,2,2-trifluoroethyl)pyrazole-4-carboxamide]
3.5 µM | > 50 µM | 2.4% | O=C(NCc1ccc2[nH]c(C(F)(F)F)cc2c1)c1cnn(CC(F)(F)F)c1 [Compound 40, 1-(2,2,2-trifluoroethyl)-N-[[2-(trifluoromethyl)-1H-indol-5-yl]methyl]pyrazole-4-carboxamide]
2.33 µM |  | -5% | Cc1cc(C(=O)N[C@H](C)c2ccc3[nH]c(C)cc3c2)on1 [Compound 61, 3-methyl-N-[(1R)-1-(2-methyl-1H-indol-5-yl)ethyl]isoxazole-5-carboxamide]
5 µM |  | 8.1% | Cc1cc(C(=O)NCc2ccc3[nH]c(C(F)(F)F)cc3c2)on1 [Compound 65, 3-methyl-N-[[2-(trifluromethyl)-1H-indol-5-yl]methyl]isoxazole-5-carboxamide]
8.8 µM | > 50 µM | 3.7% | Cc1ncc(C(=O)NCc2ccc3[nH]c(C(F)(F)F)cc3c2)s1 [Compound 66, 2-methyl-N-[[2-(trifluoromethyl)-1H-indol-5-yl]methyl]thiazole-5-carboxamide]
 | > 50 µM | 15% | N#Cc1ccc(C(=O)NCc2ccc3[nH]c(C(F)(F)F)cc3c2)cn1 [Compound C4, 6-Cyano-N-(2-trifluoromethyl-1H-indol-5-ylmethyl)-nicotinamide, reference compound]
 | > 50 µM | 17% | COc1ccc(C(=O)NCc2ccc3[nH]c(C)cc3c2)cc1 [Compound C5, 4-Methoxy-N-(2-methyl-1H-indol-5-ylmethyl)-benzamide, reference compound]
 | > 50 µM | 13% | Cc1cc2cc(CNC(=O)c3ccccc3F)ccc2n1C [Compound C6, N-(1,2-Dimethyl-1H-indol-5-ylmethyl)-2-fluoro-benzamide, reference compound]
